Results: PMC6718478, “A Comprehensive Antimicrobial Activity Evaluation of the Recombinant Microcin J25 Against the Foodborne Pathogens Salmonella and E. coli O157:H7 by Using a Matrix of Conditions” (Frontiers in Microbiology, 2019)
Positions of bridges follow the written chain, without caps; N, C: chain ends. Residues, ends and D or L forms follow the SMILES beside them.

Key:
S. Typhimurium ATCC14082 = assay: Antimicrobial activity (killing) curves; format: cell-based, Salmonella Typhimurium; details: 4 × MIC; log phase, ~5 × 10^4 CFU/mL in LB, 37°C; plate counts at 0, 2, 4, 6 h; n = 6
Experimental: (§1) To further address the activity of recombinant MccJ25, antimicrobial activity curves and Live/Dead viability assay were performed. A single colony of S. Pullorum CVCC1791, S. Typhimurium ATCC14082, and E. coli O157:H7 was inoculated into 5 mL of LB. The culture was then incubated at 37°C with shaking at 200 rpm overnight. The following day, the culture was diluted 1:100 in fresh LB and again incubated at 37°C with shaking at 200 rpm. For antimicrobial activity, the bacteria were grown until they reached log phase. Approximately 5 × 10^4 CFU/mL bacteria were inoculated into 2 mL of LB containing different concentrations of the recombinant MccJ25 (0, 1 × MIC, 2 × MIC, and 4 × MIC). The cultures (0.1 mL) were serially diluted with PBS and plated on LB and TSA agar at 0, 2, 4, and 6 h. The plates were incubated at 37°C overnight to count colony. Colonies were counted to determine CFU/mL. The experiment was conducted with two replicates in three independent trials.

E. coli O157:H7 [1] = assay: Antimicrobial activity (killing) curves; format: cell-based, Escherichia coli; details: 4 × MIC; log phase, ~5 × 10^4 CFU/mL in LB, 37°C; plate counts at 0, 2, 4, 6 h; n = 6
Experimental: as §1

S. Typhimurium [2] = assay: Live/Dead BacLight viability assay; format: cell-based, Salmonella Typhimurium; details: at the MIC level, 2 h at 37°C, 5 × 10^4 CFU/mL in LB; fluorescence microscopy
Experimental: A Live/Dead BacLight Bacterial Viability Kit 7 (Molecular Probes, Inc., Eugene) was used to test bacterial viability. Briefly, 5 × 10^4 CFU/mL S. Pullorum, S. Typhimurium, and E. coli O157:H7 were inoculated into 1 mL of LB containing recombinant MccJ25 at the MIC level specific for each pathogen. Bacterial cultures were incubated at 37°C for 2 h and then incubated in the dark at ambient temperature with SYTO 9 and propidium iodide for 15 min. Bacteria were observed using a fluorescence microscope (EVOS XL Cell Imaging System).

E. coli O157:H7 [3] = assay: Antimicrobial activity in different growth phases, viable plate counting; format: cell-based, Escherichia coli; details: 4 × MIC, LB, plate counts, n = 6
Experimental: The effect of growth phase on the anti-Salmonella and -E. coli O157:H7 activity of recombinant MccJ25 was determined by the viable plate counting method, as described previously ([Ma et al., 2016]; [Fan et al., 2017]), with minor modifications. Cultures of the strains in the early-log phase, late-log phase and stationary phase were washed, concentrated and diluted with sterilized phosphate-buffered saline (PBS) to approximately 10^7 CFU/mL. Then, 1 mL was incubated individually in 9 mL of PBS to reach an approximate 10^6 CFU/mL final concentration. The bacterial cells were then inoculated into 5 mL of LB containing different concentrations of MccJ25 (0, 1 × MIC, 2 × MIC, and 4 × MIC). At 0, 12, 24, and 48 h post incubation, the cultures (0.1 mL) were serially diluted with PBS and plated on LB and TSA agar. The plates were incubated at 37°C overnight to count colony. Colonies were counted to determine CFU/mL. The experiment was conducted with two replicates in three independent trials.

S. Pullorum = assay: Antimicrobial activity in biological food products (skim milk, egg yolk, mincemeat extract); format: cell-based, Salmonella Pullorum; details: 4 × MIC, 37°C; for viable bacteria after 24 h in the three food products: SKM, SEY, SMS, data not shown; for CFU reduction after 24 h: inoculum 10^6 CFU/mL, 250 rpm, plate counts, n = 6
Experimental: (§2) To further investigate the effects of recombinant MccJ25 on Salmonella and E. coli O157:H7 in different biological food products, sterile skim milk, egg yolk and mincemeat (pork) extract were collected and used as described previously with minor modifications ([Sable et al., 2000]). The skim milk, egg and mincemeat samples were purchased from a Carrefour store in Beijing. Specimens were kept on ice packs in coolers until they reached the laboratory, where they were stored at 4°C. The skim milk (SKM) and mincemeat supernatant (SMS) were autoclave sterilized at 121°C for 20 min. After autoclaving, the SKM and SMS samples were stored at 4°C for further use. The eggs were sterilized with 75% ethanol and transferred into an exceptionally clean bench to collect the egg yolk (SEY). The SEY was diluted 1:1 with sterile distilled water. Biological product samples were mixed with a final concentration of 4 × MIC of recombinant MccJ25 solution in sterile saline water (0.85%). They were then inoculated with S. Pullorum, S. […] Sterilized saline water (SSW) with the recombinant MccJ25 was utilized for comparison. This assay was performed to obtain the desired quantity of cells. The mixtures were tested after 24 h of incubation at 37°C with shaking (250 rpm). After incubation, Salmonella species and E. coli O157:H7 were serially diluted with PBS and plated on LB and TSA agar. The plates were incubated at 37°C overnight to count colony. Colonies were counted to determine CFU/mL. The experiment was conducted with two replicates in three independent trials.

S. Typhimurium [4] = assay: as above; format: cell-based, Salmonella Typhimurium; details: 4 × MIC, SKM, 37°C; for viable bacteria after 24 h in the three food products: SEY, SMS, data not shown
Experimental: as §2

E. coli O157:H7 [5] = assay: as above; format: cell-based, Escherichia coli; details: 4 × MIC, SKM, 37°C; for viable bacteria after 24 h in the three food products: SEY, SMS, data not shown
IPEC-J2 cells = assay: Salmonella-induced damage to IPEC-J2 cells (TEER, FD4, LDH); format: cell-based; details: 2 μg/mL for 6 h, Salmonella for 2 h; n = 9
Experimental: FIGURE S2 | Recombinant MccJ25 inhibited Salmonella-induced damage to IPEC-J2 cells. IPEC-J2 cells were cultured with or without recombinant MccJ25 (2 μg/mL) for 6 h in the absence or presence of Salmonella for 2 h. TEER (A), FD4 level (B), and LDH activity (C) in the IPEC-J2 cells were determined. Data are the means ± SEMs of three independent experiments, n = 9. Different superscript lowercase letters within each group indicate significant differences (P < 0.05); The asterisk denotes a significant difference in comparison with the control group (*P < 0.05, **P < 0.01).

Claudin-1 = assay: Tight junction protein mRNA expression in Salmonella-challenged IPEC-J2 cells, real-time PCR; format: cell-based; details: 6 h with recombinant MccJ25, then Salmonella for 2 h, n = 9
Experimental: (§3) IPEC-J2 cells were cultured with or without recombinant MccJ25 for 6 h and then treated with Salmonella for 2 h. Cells were collected, and relative mRNA expression was analyzed by real-time PCR. The data are the means ± SEMs of three independent experiments, n = 9. Different superscript lowercase letters within each group indicate significant differences (P < 0.05).

ZO-1 = assay: as above; format: cell-based; details: 6 h with recombinant MccJ25, then Salmonella for 2 h, n = 9
Experimental: as §3

[6] = SEY, and SMS, inoculum 10^6 CFU/mL, plate counts, n = 6

Structure (SMILES): CC[C@H](C)[C@H](NC(=O)CNC(=O)[C@@H](NC(=O)[C@H](Cc1ccccc1)NC(=O)[C@H](Cc1ccc(O)cc1)NC(=O)[C@@H]1CCC(=O)NCC(=O)NCC(=O)N[C@@H](C)C(=O)NCC(=O)N[C@@H](Cc2c[nH]cn2)C(=O)N[C@@H](C(C)C)C(=O)N2CCC[C@H]2C(=O)N1)C(C)C)C(=O)NCC(=O)N[C@H](C(=O)N1CCC[C@H]1C(=O)N[C@H](C(=O)N[C@@H](CO)C(=O)N[C@@H](Cc1ccccc1)C(=O)N[C@@H](Cc1ccc(O)cc1)C(=O)NCC(=O)O)[C@@H](C)CC)[C@@H](C)O [recombinant MccJ25, microcin J25] (GGAGHVPEYFVGIGTPISFYG-OH; lactam N-8 (inferred); C-terminus assumed)
- incubation time after which the pathogen was eliminated (killing curve) (S. Typhimurium ATCC14082): 6 h
- incubation time after which the pathogen was eliminated (killing curve) (E. coli O157:H7 [1]): 6 h
- bactericidal activity, Live/Dead staining (SYTO 9 / propidium iodide) (S. Typhimurium [2]): excellent bactericidal activity
- time to reduction to non-detectable levels (E. coli O157:H7 [3]; early-log phase cells): ≤ 12 h
- time to reduction to non-detectable levels (E. coli O157:H7 [3]; late-log phase cells): ≤ 24 h
- time to reduction to non-detectable levels (E. coli O157:H7 [3]; stationary phase cells): 48 h
- viable bacteria after 24 h in the three food products (S. Pullorum; inoculum 10^3 CFU/mL): no viable bacteria were detected
- viable bacteria after 24 h in the three food products (S. Pullorum; inoculum 10^4 CFU/mL): no bacteria were detected
- CFU reduction after 24 h (S. Pullorum; sterilized egg yolk (SEY), diluted 1:1): ~8 × 10^3 CFU/mL
- CFU reduction after 24 h (S. Pullorum; sterilized mincemeat supernatant (SMS)): ~7 × 10^3 CFU/mL
- CFU reduction after 24 h (S. Pullorum; sterilized skim milk (SKM)): approximately 10^4 CFU/mL
- viable bacteria after 24 h in the three food products (S. Typhimurium [4]; inoculum 10^3 CFU/mL): no viable bacteria were detected
- viable bacteria after 24 h in the three food products (S. Typhimurium [4]; inoculum 10^4 CFU/mL): no bacteria were detected
- CFU reduction after 24 h (S. Typhimurium [4]; [6]): approximately 10^3 CFU/mL
- viable bacteria after 24 h in the three food products (E. coli O157:H7 [5]; inoculum 10^3 CFU/mL): no viable bacteria were detected
- viable bacteria after 24 h in the three food products (E. coli O157:H7 [5]; inoculum 10^4 CFU/mL): no bacteria were detected
- CFU reduction after 24 h (E. coli O157:H7 [5]; [6]): approximately 10^3 CFU/mL
- S. Pullorum-induced decrease in TEER (IPEC-J2 cells): attenuated
- S. Pullorum-induced increase in FD4 level (IPEC-J2 cells): attenuated
- S. Pullorum-induced increase in LDH level (IPEC-J2 cells): attenuated
- mRNA expression of Claudin-1 (Claudin-1): significantly increased
- mRNA expression of ZO-1 (ZO-1): significantly increased
